Results on two compounds are retold here after US12121026B1, “N-[(1-phenyl-4H-1,2,4-triazol-3-yl) carbamothioyl]benzamide as an eco-friendly insecticidal agent against spodoptera littoralis” (KING FAISAL UNIVERSITY, priority 2023, dated 2024).

In brackets after ≈: the same amount, converted by molar mass. Like-named read-outs stand apart in the source and are kept apart here.

The test has as its system second and fourth instars larvae of the laboratory strain of cotton leafworm, S. littoralis. Description: Insecticidal bioassay screening (castor leaf dip). The class given is in vivo. The conditions noted are these: for Toxicity index %: 72 hrs, Diflubenzuron's LC50/compound's LC50 x100; for LC90 (mg/L) at 95%: after 72 hrs of treatment; for LC50: Spodoptera littoralis, foliar. On the procedure:
Five concentrations (200, 100, 50, 25, 12.5 ppm) were designed for this synthetic compound and the reference Diflubenzuron compound as the dynamic ingredients based on ppm via diluting the commercial formulation.
In this experiment, castor leaves are immersed in each of the previously prepared concentrations of the components for 10 seconds and then left to dry for 60 minutes. Larvae of the second and fourth instars of each checked strain are prepared with treated leaves in gauze-covered glass containers for 72 hrs. An untreated control is made in which leaves are dipped in triton x-100 and distilled water only. Then the preserved leaves were removed & fresh, untreated leaves were provided for 72 hours. Three replicates (10 larvae each) were checked for each concentration. Daily inspection was carried out for all treatments and mortality percentages were recorded 3 days (72 hours) after treatment. The average mortality percentage was corrected employing Abbott's formula. The corrected mortality rate for each of the previously synthesized compounds is statistically calculated according to Finney (1970). Through this rate, the corresponding concentration test lines (LDP lines) are assessed.

[1] abbreviates: 72 h, read-out: LC50 (mg/L) at 95%, 2nd instar larvae, after 72 hrs of treatment.
The mark [2] stands for this setting: 72 h, read-out: LC50 (mg/L) at 95%, 4th instar larvae, after 72 hrs of treatment.
The mark [3] stands for this setting: against Spodoptera littoralis under laboratory conditions, instar not stated.

`O=C(NC(=S)Nc1ncn(-c2ccccc2)n1)c1ccccc1` [Compound 1, N-[(1-phenyl-1H-1,2,4-triazol-3-yl)carbamothioyl]benzamide] yielded a Toxicity index % (2nd instar larvae) of 22.8% and a Toxicity index % (4th instar larvae) of 36.7%. Besides, the “LC90 (mg/L) at 95%” value is 1733.6 mg/L (≈ 5360 µM) (2nd instar larvae); “about 1733.6 mg/L” (2nd instar larvae, listed as N-[(1-phenyl-4H-1,2,4-triazol-3-yl)carbamothioyl]benzamide); 4090.2 mg/L (≈ 12600 µM) (4th instar larvae); “about 4090.2 mg/L” (4th instar larvae, listed as N-[(1-phenyl-4H-1,2,4-triazol-3-yl)carbamothioyl]benzamide). Besides, the LC50 was about 198 mg/L (≈ 613 µM) under setting [1], about 392 mg/L (≈ 1210 µM) under setting [2] and 198 mg/L (≈ 613 µM) under setting [3].

On to `O=C(NC(=O)c1c(F)cccc1F)Nc1ccc(Cl)cc1` [Diflubenzuron, reference compound], for which the Toxicity index % reads like this: (2nd instar larvae) 100%; (4th instar larvae) 100%. Further, the “LC90 (mg/L) at 95%” value reads like this: (2nd instar larvae) 520.0 mg/L (≈ 1670 µM); (4th instar larvae) 1540.5 mg/L (≈ 4960 µM). Besides, the LC50 is, setting by setting: under setting [1], 45.2 mg/L (≈ 145 µM); under setting [2], 144 mg/L (≈ 464 µM); under setting [3], 45.2 mg/L (≈ 145 µM).
